This note sets out measurements from patent publication US20140113958A1, “HCV Combination Therapy” (priority 2011, published 2014).

Like-named read-outs stand apart in the source and are kept apart here.

The subject of series [1] is wild-type HCV genotype 1b replicon. As to the kind of experiment: Transient transfection replicon assay in Huh 7 cells (luciferase, 72 hours), wild-type. In kind it is cell-based.
The subject of series [2] is drug-resistant HCV genotype 1b replicons (NS3, NS5A, NS5B). The method, then: The in vitro antiviral of miravirsen was evaluated against wild-type HCV genotype 1b replicon and HCV genotype 1b replicons constructed to contain key amino acid substitutions in NS3 protease (A156T, R155K), NS5B polymerase (S282T, M423I) and NS5A protein (Y93H) in transient transfection assays utilizing Huh 7 cells. […] Huh 7 cells were transfected with either the wild-type or the mutant RNA constructs by electroporation. Luciferase activity was measured 72 hours after compound treatment and EC50 values determined from dose-response curves. Fold resistance was expressed as the ratio of the EC50 for mutant HCV replicon to the EC50 for wild-type HCV replicon.
The in vitro antiviral of miravirsen was evaluated against wild-type HCV genotype 1b replicon and HCV replicons constructed to contain key amino acid substitutions in NS3 protease (A156T, R155K), NS5B polymerase (S282T, M423I) and NS5A protein (Y93H) in transient transfection assays. […] Huh 7 cells were transfected with either the wild type or the mutant RNA constructs by electroporation. Luciferase activity was measured 72 hours after compound treatment and EC50 values determined from dose-response curves. Fold resistance was expressed as the ratio of the EC50 for mutant HCV replicon to the EC50 for wild-type HCV replicon. Results are expressed as the mean of two individual experiments. […]

Series [3] relates to HCV genotype 1. As to the kind of experiment: Phase 2a clinical trial, miravirsen monotherapy. In kind it is in vivo, human. Particulars: for mean of the maximum HCV RNA decline from baseline: 5 weekly doses subcutaneously over 29 days, chronic HCV genotype 1 patients. The method, then:
Thirty-six treatment-naïve chronic HCV genotype 1 infected patients were enrolled into 3 sequential dosing cohorts and received 5 weekly doses of miravirsen 3, 5, or 7 mg/kg (n=27) or placebo (n=9) subcutaneously over 29 days and were followed up until week 18.

Series [4] deals with cytochrome 450. As to the kind of experiment: Metabolism by cytochrome 450 mechanisms. In kind it is in vitro ADME.
Series [5] deals with HCV. As to the kind of experiment: HCV RNA suppression in vivo.
The mark [6] stands for this setting: chronic HCV genotype 1 infected patients.

Consider “5′-^mCs^ocsAs^otstsGs^oTs^ocsas^mCs^oas^mCs^ots^mCs^omC^o-3′ (CCATTGTCACACTCC; all phosphorothioate, sugars by position and methylation of C not given here; further chemistry not fully specified) [miravirsen]”, for which the EC50 in series [1] (Huh 7 cells preincubated with miravirsen 24 hours before electroporation with wild-type RNA, read-out: EC50) amounted to 25.6 µM; in series [1] (wild-type HCV, transient transfection assays, read-out: average EC50) it was 36.7 µM. Besides, the “fold changes in resistance” value in series [2] (all drug-resistant HCV variants tested) is listed as “less than 2 fold”. For the same substance, the “antiviral activity against drug-resistant replicons” value in series [2] (replicons resistant to NS3, NS5A and NS5B inhibitors) is recorded as “broad antiviral activity”. The “mean of the maximum HCV RNA decline from baseline” value is recorded as 1.2 log10IU/mL in series [3] (3 mg/kg), 2.9 log10IU/mL in series [3] (5 mg/kg) and 3.0 log10IU/mL in series [3] (7 mg/kg). Further, the “patients who achieved undetectable HCV RNA” value is given as “One” in series [3] (5 mg/kg cohort) and “four” in series [3] (7 mg/kg cohort). For the same substance, the dose-limiting adverse events result in series [3] (3, 5 or 7 mg/kg) was “no dose-limiting adverse events”. For the same substance, in series [3] (3, 5 or 7 mg/kg), the “escape mutations in the HCV genome miR-122 binding sites” value is listed as “no escape mutations were observed”. Besides, the “emergence of viral resistance” value in series [3] (setting [6]) is on record as “not seen”. Moreover, the “reduction in HCV RNA” value in series [3] (setting [6]) was “prolonged dose-dependent reductions in HCV RNA levels”; in series [3] (chronic HCV genotype 1 infected patients, listed as Miravirsen) it was “dose-dependent reduction in HCV RNA that was prolonged well beyond the end of active therapy”. The safety and tolerability entry in series [3] (setting [6]) was “safe, well-tolerated”. Further, the HCV titre entry in series [3] (four week clinical trial to assess safety and tolerability) is “below detection”. Also, the “metabolism by cytochrome 450 mechanisms” value in series [4] is “not metabolized by cytochrome 450 mechanisms”. The “HCV RNA suppression in vivo” value in series [5] is reported as “long-lasting HCV RNA suppression without emergence of resistance”.
